Experimental data as given in patent publication US20230404994A1, “MARKERS OF TISSUE AGING AND USES THEREFOR” (The University of Newcastle, priority 2017, published 2023).
Entries after “also recorded” stand apart in the source; their conditions may differ.

How the values were obtained:
kidney = details: Lindsey et al., 2011, Hypertension, 58: 665-671; cited from earlier work
[1] = system: serum starved placental explants; assay: Placental explant culture in serum-free medium, 4HNE / LC3B / LAMP2 immunohistochemistry; format: cell-based, human; details: 24 hr of treatment; for disturbance in autophagosome size / disturbance in lysosomal location: serum starved placental explants; for production of 4HNE (induced by serum starvation): term placental explants, serum-free medium, 1 nM, p<0.05 (N=6)
From the text: For in vitro experiments, human term placentas (38-39 weeks of gestation) were obtained from women with normal singleton pregnancies without any symptoms of labour after an elective (a scheduled repeat) caesarean section. Placentas were collected immediately after delivery and prepared for explant culture. Villous tissues of placentas were randomly sampled from different regions of placenta and 4-5 mm beneath the chorionic plate. Tissues were washed several times with Dulbecco's phosphate-buffered saline (DPBS) under sterile condition to remove excess blood.
Villous explants of ˜2 mm^3 were dissected and placed into 100×20 mm culture dishes (30 pieces/dish) containing 25 ml of Dulbecco's modified Eagle's medium (DMEM) supplemented with 2 mM L-glutamine, 1% Na-pyruvate, 1% penicillin/streptomycin (100×) solution with the addition of 10% (v/v) fetal bovine serum (FBS) and were cultured in a cell culture chamber at 37° C. temperature and maintaining 95% air (20% oxygen) and 5% CO2 for 24 hours. At day 2, villous explants were transferred to fresh 30 ml growth medium and incubated in a cell culture chamber for 90 minutes. After this the tissues were washed in DMEM without FBS (refer to as ‘serum-free medium’ or ‘growth factor deficient medium’). Next 6-7 pieces of villous tissue weighing approximately 400 mg were transferred to a culture dish (60×15 mm) containing 6 ml serum-free medium with or without the addition of pharmacological agents, for example, raloxifene (1 nM) and GPER1 agonist G1 (1 nM), for subsequent incubation up to 24 h. At the end of 24 h some tissues were fixed in 2% formaldehyde, subjected to routine histological processing and embedded in paraffin wax, and some tissues were immediately frozen in liquid nitrogen and stored at −80° C. until subsequent experiments. For each placental explant culture, samples were also collected at time ‘0 (zero)’ h i.e., before incubation in serum free medium, and were formalin fixed and stored frozen at −80° C. until further experiments.
6 μm paraffin placental sections were deparaffinised and hydrated, then heated with tris-EDTA buffer (pH 9) in a microwave oven for antigen retrieval. The sections were blocked with 1% BSA in TBST for an hour at room temperature. The sections were incubated with primary antibodies overnight and washed three times with TBST, before incubation with Alexa-conjugated secondary antibodies for 90 mins. The sections were mounted with antifade solution with DAPI. The fluorescent photographs for FIGS. 3 to 7, 9 and 11 were taken on a Nikon eclipse 90i confocal microscope. The fluorescent photographs for FIG. 10 were taken on Nikon eclipse Ti fluorescence microscope.
The present data provide clear evidence for increased lipid oxidation, disordered lysosome-autophagosome interactions and increased AOX1 expression in the post-dated and stillbirth placental syncytiotrophoblast. To determine if these events were causally linked the inventors developed a placental explant culture system using term placental tissue cultured in serum-free (growth factor deficient) medium.
The inventors sought to determine cause and effect relationships between the development of lipid oxidation observed when placental explants were cultured in the absence of serum and AOX1. The GPER agonist G-1 was used to inhibit aldehyde oxidase. The potent AOX1 inhibitor, raloxifene, was also used.

| Compound | production of 4HNE in the kidney (kidney) | disturbance in autophagosome size [1] | disturbance in lysosomal location [1] | production of 4HNE (induced by serum starvation) [1] |
| --- | --- | --- | --- | --- |
| CC(=O)c1ccc2c(c1)C1C=CCC1C(c1cc3c(cc1Br)OCO3)N2 (stereo not shown) [G1, 1-[4-(6-bromobenzo[1,3]dioxol-5yl)-3a,4,5,9b-tetrahydro-3H-cyclopenta[c]quinolin-8-yl]-ethanone] | inhibit production of 4HNE in the kidney | able to block | able to block | inhibited the production of 4HNE; also recorded: significantly reduced |
| O=C(c1ccc(OCCN2CCCCC2)cc1)c1c(-c2ccc(O)cc2)sc2cc(O)ccc12 [raloxifene] | – | able to block | able to block | inhibited the production of 4HNE; also recorded: significantly reduced |
